Residue numbers refer to the chain shown, from its start.
Experiments:
wild type AR = target: T1, wild type AR (Homo sapiens, UniProt P10275); assay: MMTV-luciferase transcription assay in CV-1 cells, wild type AR; assay type: cell-based; settings: wild type AR; for MMTV transcription assay in CV-1 cells WT (IC50 / inhibition): values given as powers of ten without unit, or in words
T1 construct: expressed in transfected cells; host or cells: CV-1
T1 sequence (P10275 1-920): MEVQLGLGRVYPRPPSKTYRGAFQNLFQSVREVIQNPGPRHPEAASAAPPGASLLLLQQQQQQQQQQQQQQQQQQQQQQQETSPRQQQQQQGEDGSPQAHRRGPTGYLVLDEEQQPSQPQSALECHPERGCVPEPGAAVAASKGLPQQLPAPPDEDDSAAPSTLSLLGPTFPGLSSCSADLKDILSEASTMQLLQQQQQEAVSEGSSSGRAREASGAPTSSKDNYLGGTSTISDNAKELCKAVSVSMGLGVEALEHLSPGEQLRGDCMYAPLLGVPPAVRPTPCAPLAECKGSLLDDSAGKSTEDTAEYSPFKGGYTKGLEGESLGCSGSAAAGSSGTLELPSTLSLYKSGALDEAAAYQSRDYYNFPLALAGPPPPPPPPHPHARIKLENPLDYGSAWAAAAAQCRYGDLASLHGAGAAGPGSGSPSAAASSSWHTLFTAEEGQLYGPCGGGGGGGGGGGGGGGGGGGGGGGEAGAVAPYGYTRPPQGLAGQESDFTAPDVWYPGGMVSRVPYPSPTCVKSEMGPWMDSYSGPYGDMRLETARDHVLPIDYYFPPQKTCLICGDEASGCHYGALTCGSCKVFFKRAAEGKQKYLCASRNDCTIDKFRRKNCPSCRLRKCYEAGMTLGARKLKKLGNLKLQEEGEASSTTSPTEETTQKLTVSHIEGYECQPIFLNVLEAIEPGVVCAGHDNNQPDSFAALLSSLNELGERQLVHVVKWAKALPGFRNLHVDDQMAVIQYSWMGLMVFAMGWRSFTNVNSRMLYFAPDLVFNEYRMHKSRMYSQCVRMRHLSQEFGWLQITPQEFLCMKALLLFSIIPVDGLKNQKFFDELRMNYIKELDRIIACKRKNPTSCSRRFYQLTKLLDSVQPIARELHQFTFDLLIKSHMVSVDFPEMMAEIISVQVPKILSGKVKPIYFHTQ
Description: (§1) These compounds were screened using an AR-responsive MMTV transcription assay in CV-1 cells, utilizing both wild type and T877A (LNCaP) AR. […]

androgen receptor = assay: Whole-cell competition binding assay using 3H-R1881; settings: whole cells; mutant AR and WT-AR
T877A (LNCaP) AR = target: T2, T877A (LNCaP) AR (Homo sapiens, UniProt P10275, T878A); assay: MMTV-luciferase transcription assay in CV-1 cells, T877A AR; assay type: cell-based; settings: for AR antagonism, potency in words (structure-activity discussion): MMTV transcription assay in CV-1 cells, compared with 1; for IC50 / MMTV transcription assay in CV-1 cells T877A (IC50 / inhibition): T877A AR; for IC50: values given in μM, read-out: MMTV transcription assay in CV-1 cells T877A (IC50); for MMTV transcription assay in CV-1 cells T877A (IC50 / inhibition): values given as powers of ten without unit, or in words
T2 construct: expressed in transfected cells; host or cells: CV-1
T2 sequence (P10275 1-920 T878A): T1 sequence (P10275 1-920) with T878A
Description: as §1

AR = target: T3, AR (Homo sapiens, UniProt P10275); assay: AR relative binding affinity (RBA)
T3 sequence (P10275 1-920): T1 sequence (P10275 1-920)

| MMTV transcription assay in CV-1 cells WT (IC50 / inhibition) (wild type AR) | AR antagonism, potency in words (structure-activity discussion) (T877A (LNCaP) AR) | MMTV transcription assay in CV-1 cells T877A (IC50 / inhibition) (T877A (LNCaP) AR) | SMILES | other results |
| --- | --- | --- | --- | --- |
| No inhibition No inhibition | – | No inhibition No inhibition | COc1nccc([C@H]2[C@H](c3ccccc3)[C@H](c3ccnc(OC)n3)[C@H]2c2ccccc2)n1 [DPM-5] | – |
| No inhibition | decreased activity | – | COc1cncc([C@@H]2[C@@H](c3ccccc3)[C@@H](c3ccccc3)[C@@H]2c2cncc(OC)n2)n1 [DPM-15] | – |
| No inhibition | decreased activity | Slight inhibition at 10^−5 | COc1cncc([C@@H]2[C@@H](c3ccccc3)[C@@H](c3ccccc3)[C@@H]2c2cncc(OC)n2)n1 [DPM-16] | – |
| No inhibition | inactive | No inhibition | COc1cc([C@H]2[C@H](c3ccc(Br)cc3)[C@@H](c3cc(OC)nc(OC)n3)[C@H]2c2ccc(Br)cc2)nc(OC)n1 [DMP-10] | – |
| No inhibition No inhibition | – | No inhibition No inhibition | COc1nccc([C@H]2[C@H](c3ccccc3)[C@@H](c3ccnc(OC)n3)[C@H]2c2ccccc2)n1 [DMP-6] | – |

Second part, the molecule before the results:

| SMILES | MMTV transcription assay in CV-1 cells WT (IC50 / inhibition) (wild type AR) | AR antagonism, potency in words (structure-activity discussion) (T877A (LNCaP) AR) | MMTV transcription assay in CV-1 cells T877A (IC50 / inhibition) (T877A (LNCaP) AR) | other results |
| --- | --- | --- | --- | --- |
| c1ccc([C@H]2[C@H](c3ccccn3)[C@H](c3ccccc3)[C@H]2c2ccccn2)cc1 [DMP-13] | No inhibition No inhibition | – | – | – |
| CCCNc1cc([C@H]2[C@H](c3ccccc3)[C@@H](c3cc(NCCC)nc(NCCC)n3)[C@H]2c2ccccc2)nc(NCCC)n1 [CB-1] | – | – | – | competition with 3H-R1881 for binding to AR (androgen receptor): compete with 3H-R1881 |
| Cc1cc([C@H]2[C@H](c3ccccc3)[C@H](c3cc(C)nc(Cl)n3)[C@H]2c2ccccc2)nc(Cl)n1 [DPM-30] | – | comparable potency to 1 | – | IC50 (wild type AR; values given in μM, read-out: MMTV transcription assay in CV-1 cells WT (IC50)): 17 µM; IC50 (T877A (LNCaP) AR): 2.89 µM |
| Clc1cc([C@H]2[C@H](c3ccccc3)[C@H](c3cc(Cl)ncn3)[C@H]2c2ccccc2)ncn1 [DPM-26] | Incomplete inhibition at 10^−5 | decreased potency | – | IC50 (T877A (LNCaP) AR): 9 µM |
| CSc1cc([C@H]2[C@H](c3ccccc3)[C@@H](c3cc(SC)nc(SC)n3)[C@H]2c2ccccc2)nc(SC)n1 [CB-35] | – | – | – | AR RBA (AR): 0.027% |
| COc1cc([C@H]2[C@H](c3ccsc3)[C@H](c3cc(OC)nc(OC)n3)[C@H]2c2ccsc2)nc(OC)n1 [DPM-8] | Incomplete inhibition at 10^−5 Incomplete inhibition at 10^−5 | retained parent compound potency | – | – |
| c1ccc([C@H]2[C@H](c3cnccn3)[C@H](c3ccccc3)[C@@H]2c2cnccn2)cc1 [DPM-11/20] | No inhibition No inhibition | – | Mild inhibition at~10^−5 | – |
| COc1cncc([C@H]2[C@H](c3ccccc3)[C@@H](c3cncc(OC)n3)[C@H]2c2ccccc2)n1 [DPM-17] | – | decreased activity | – | – |
| c1ccc([C@@H]2[C@H](c3ccccc3)[C@@H](c3ccccn3)[C@H]2c2ccccn2)cc1 [DPM-14] | No inhibition No inhibition | – | No inhibition | – |
| CCc1cc([C@H]2[C@H](c3ccccc3)[C@H](c3cc(CC)nc(CC)n3)[C@H]2c2ccccc2)nc(CC)n1 [CB-50] | – | – | – | AR RBA (AR): 0.029% |
| Clc1cc([C@@H]2[C@H](c3cc(Cl)nc(Cl)n3)[C@@H](c3cccs3)[C@H]2c2cccs2)nc(Cl)n1 [DMP-29] | Incomplete inhibition at 10^−5 Incomplete inhibition at 10^−5 | retained parent compound potency | Incomplete inhibition at 10^−5 | – |
| c1ccc([C@@H]2[C@H](c3ccccc3)[C@@H](c3cnccn3)[C@H]2c2cnccn2)cc1 [DPM-12] | No inhibition No inhibition | – | No inhibition | – |
| Clc1cc([C@H]2[C@H](c3ccc(-c4ccccc4)cc3)[C@H](c3cc(Cl)nc(Cl)n3)[C@H]2c2ccc(-c3ccccc3)cc2)nc(Cl)n1 [DPM-27] | No inhibition | inactive | No inhibition | – |
| COc1cncc([C@H]2[C@H](c3ccccc3)[C@H](c3cncc(OC)n3)[C@H]2c2ccccc2)n1 [DPM-18] | No inhibition | decreased activity | – | – |
| Clc1cc([C@H]2[C@H](c3cccs3)[C@H](c3cc(Cl)nc(Cl)n3)[C@H]2c2cccs2)nc(Cl)n1 [DMP-28] | Incomplete inhibition at 10^−5 Incomplete inhibition at 10^−5 | retained parent compound potency | – | IC50 (T877A (LNCaP) AR): 2.6 µM |
| COc1cc([C@H]2[C@@H](c3ccccc3)[C@@H](c3cc(=O)[nH]c(=O)[nH]3)[C@@H]2c2ccccc2)nc(OC)n1 [CB-46] | – | – | – | AR RBA (AR): 0.065% |
| COc1cc([C@H]2[C@@H](c3ccccc3)[C@H](c3cc(=O)[nH]c(=O)[nH]3)[C@@H]2c2ccccc2)nc(OC)n1 [CB-45] | – | – | – | AR RBA (AR): 0.087% |
| COc1cc([C@H]2[C@H](c3ccccc3)[C@@H](c3cc(OC)nc(OC)n3)[C@H]2c2ccccc2)nc(OC)n1 [CB-31] | – | – | – | AR RBA (AR): 0.046% |
| CC(C)CNc1cc([C@H]2[C@@H](c3ccccc3)[C@H](c3cc(NCC(C)C)nc(NCC(C)C)n3)[C@@H]2c2ccccc2)nc(NCc2cccc3ccccc23)n1 [CB-6] | – | – | – | competition with 3H-R1881 for binding to AR (androgen receptor): compete with 3H-R1881 |
| O=c1cc([C@H]2[C@H](c3ccccc3)[C@@H](c3cc(=O)[nH]c(=O)[nH]3)[C@H]2c2ccccc2)[nH]c(=O)[nH]1 [CB-48] | – | – | – | AR RBA (AR): 0.023% |
| CSc1cc([C@H]2[C@H](c3ccccc3)[C@H](c3cc(SC)nc(SC)n3)[C@H]2c2ccccc2)nc(SC)n1 [CB-34] | – | – | – | AR RBA (AR): 0.002% |
